≈ marks a conversion by molar mass, not a printed value. Like-named read-outs stand apart in the source and are kept apart here.
Legend:
[1] = Screen at 10 μM against 168 targets; type: binding
[2] = system: S. xylosus; assay: In vitro activity (MIC) against S. xylosus strains
[3] = system: Staphylococcus spp. strains; assay: In vitro activity (MIC) against Staphylococcus spp. strains; conditions: Staphylococcus
[4] = system: Enterobacteriaceae spp. strains; assay: In vitro activity (MIC) against Enterobacteriaceae spp. strains

Structure (SMILES): COC1/C=C/O[C@@]2(C)Oc3c(C)c(O)c4c(O)c(c5c(c4c3C2=O)NC2C=C(C)C=CN52)NC(=O)/C(C)=C\C=C\C(C)C(O)C(C)C(O)C(C)C(O)C1C (stereo partly shown) [25-desacetyl rifaximin]
- hits (50% effect, either inhibition or stimulation) in screen against 168 targets [1]: two “hits”
- MIC ([2]; Staphylococcus xylosus): 2 mg/L (≈ 2.68 µM)
- MIC ([2]; strain S. xylosus 346): 2 mg/L (≈ 2.68 µM)
- MIC50 [3]: 2 mg/L (≈ 2.68 µM)
- MIC90 [3]: 16 mg/L (≈ 21.5 µM)
- MIC ([3]; read-out: Mode (MIC), Staphylococcus spp. strains): 2 mg/L (≈ 2.68 µM)
- MIC ([3]; strain S. spp. 1102): 1 mg/L (≈ 1.34 µM)
- MIC ([3]; strain S. spp. 1187): 2 mg/L (≈ 2.68 µM)
- MIC ([3]; strain S. spp. 1195): 0.12 mg/L (≈ 0.161 µM)
- MIC ([3]; strain S. spp. 1256): 4 mg/L (≈ 5.36 µM)
- MIC ([3]; strain S. spp. 1312): 4 mg/L (≈ 5.36 µM)
- MIC ([3]; strain S. spp. 1689): 4 mg/L (≈ 5.36 µM)
- MIC ([3]; strain S. spp. 1745): 0.25 mg/L (≈ 0.335 µM)
- MIC [4]: 128 mg/L (≈ 172 µM)
- MIC50 [4]: 128 mg/L (≈ 172 µM)
- MIC90 [4]: 256 mg/L (≈ 343 µM)
- MIC ([4]; Citrobacter freundii, C. freundii 57): 128 mg/L (≈ 172 µM)
- MIC ([4]; Citrobacter freundii, C. freundii 58): 128 mg/L (≈ 172 µM)
- MIC ([4]; Citrobacter freundii, C. freundii 65): 128 mg/L (≈ 172 µM)
- MIC ([4]; Citrobacter freundii, C. freundii 68): 256 mg/L (≈ 343 µM)
- MIC ([4]; Citrobacter freundii, C. freundii 69): 128 mg/L (≈ 172 µM)
- MIC ([4]; Citrobacter freundii, C. freundii 1070): 128 mg/L (≈ 172 µM)
- MIC ([4]; Citrobacter freundii, C. freundii 1073): 256 mg/L (≈ 343 µM)
- MIC ([4]; Citrobacter freundii, C. freundii 1075): 128 mg/L (≈ 172 µM)
- MIC ([4]; Enterobacter cloacae, E. cloacae 1): 128 mg/L (≈ 172 µM)
- MIC ([4]; Enterobacter cloacae, E. cloacae 3): 128 mg/L (≈ 172 µM)
- MIC ([4]; Enterobacter cloacae, E. cloacae 8): 256 mg/L (≈ 343 µM)
- MIC ([4]; Enterobacter cloacae, E. cloacae 12): 128 mg/L (≈ 172 µM)
- MIC ([4]; Enterobacter cloacae, E. cloacae 13): 128 mg/L (≈ 172 µM)
- MIC ([4]; Enterobacter cloacae, E. cloacae 14): 128 mg/L (≈ 172 µM)
- MIC ([4]; Enterobacter cloacae, E. cloacae 16): 128 mg/L (≈ 172 µM)
- MIC ([4]; Enterobacter cloacae, E. cloacae 20): 128 mg/L (≈ 172 µM)
- MIC ([4]; Enterobacter cloacae, E. cloacae 321): 128 mg/L (≈ 172 µM)
- MIC ([4]; Enterobacter cloacae, E. cloacae 348): 256 mg/L (≈ 343 µM)
- MIC ([4]; Enterobacter cloacae, E. cloacae 349): 128 mg/L (≈ 172 µM)
- MIC ([4]; Enterobacter cloacae, E. cloacae 358): 128 mg/L (≈ 172 µM)
- MIC ([4]; Enterobacter cloacae, E. cloacae 367): 128 mg/L (≈ 172 µM)
- MIC ([4]; Enterobacter cloacae, E. cloacae 369): 256 mg/L (≈ 343 µM)
- Range (MIC) ([4]; Enterobacteriaceae spp. strains): 128 to 256 mg/L
- MIC ([4]; Escherichia coli, ATCC E. Coli 25922): 128 mg/L (≈ 172 µM)
- MIC ([4]; Escherichia coli, E. coli 6): 128 mg/L (≈ 172 µM)
- MIC ([4]; Escherichia coli, E. coli 15): 128 mg/L (≈ 172 µM)
- MIC ([4]; Escherichia coli, E. coli 34): 128 mg/L (≈ 172 µM)
- MIC ([4]; Escherichia coli, E. coli 37): 128 mg/L (≈ 172 µM)
- MIC ([4]; Escherichia coli, E. coli 41): 128 mg/L (≈ 172 µM)
- MIC ([4]; Escherichia coli, E. coli 43): 128 mg/L (≈ 172 µM)
- MIC ([4]; Escherichia coli, E. coli 44): 256 mg/L (≈ 343 µM)
- MIC ([4]; Escherichia coli, E. coli 46): 128 mg/L (≈ 172 µM)
- MIC ([4]; Escherichia coli, E. coli 47): 128 mg/L (≈ 172 µM)
- MIC ([4]; Escherichia coli, E. coli 48): 256 mg/L (≈ 343 µM)
- MIC ([4]; Escherichia coli, E. coli 49): 128 mg/L (≈ 172 µM)
- MIC ([4]; Escherichia coli, E. coli 56): 128 mg/L (≈ 172 µM)
- MIC ([4]; Escherichia coli, E. coli 62): 128 mg/L (≈ 172 µM)
- MIC ([4]; Escherichia coli, E. coli 71): 128 mg/L (≈ 172 µM)
- MIC ([4]; Escherichia coli, E. coli 90): 128 mg/L (≈ 172 µM)
- MIC ([4]; Escherichia coli, E. coli 92): 128 mg/L (≈ 172 µM)
- MIC ([4]; Escherichia coli, E. coli 93): 256 mg/L (≈ 343 µM)
- MIC ([4]; Escherichia coli, E. coli 95): 128 mg/L (≈ 172 µM)
- MIC ([4]; Escherichia coli, E. coli 96): 128 mg/L (≈ 172 µM)
- MIC ([4]; Escherichia coli, E. coli 97): 128 mg/L (≈ 172 µM)
- MIC ([4]; Escherichia coli, E. coli 100): 128 mg/L (≈ 172 µM)
- MIC ([4]; Escherichia coli, E. coli 102): 128 mg/L (≈ 172 µM)
- MIC ([4]; Escherichia coli, E. coli 103): 128 mg/L (≈ 172 µM)
- MIC ([4]; Escherichia coli, E. coli 109): 128 mg/L (≈ 172 µM)
- MIC ([4]; Escherichia coli, E. coli 110): 256 mg/L (≈ 343 µM)
- MIC ([4]; Escherichia coli, E. coli 112): 128 mg/L (≈ 172 µM)
- MIC ([4]; Escherichia coli, E. coli 113): 128 mg/L (≈ 172 µM)
- MIC ([4]; Escherichia coli, E. coli 117): 256 mg/L (≈ 343 µM)
- MIC ([4]; Escherichia coli, E. coli 118): 128 mg/L (≈ 172 µM)
- MIC ([4]; Escherichia coli, E. coli 120): 128 mg/L (≈ 172 µM)
- MIC ([4]; Escherichia coli, E. coli 140): 256 mg/L (≈ 343 µM)
- MIC ([4]; Escherichia coli, E. coli 171): 128 mg/L (≈ 172 µM)
- MIC ([4]; Escherichia coli, E. coli 342): 128 mg/L (≈ 172 µM)

Source: US9364467B2 (Salix Pharmaceuticals, Ltd, priority 2012, dated 2016)
